Reference: publication PMC11286772, “Structural basis of antagonist selectivity in endothelin receptors” (Cell Discovery, 2024)
Changes are numbered by the printed parent chain. Read-outs that look alike come from different tables or passages of the source.

What was measured:
Format in all cases: cell-based
ETA WT = target: T1, ETA WT (Homo sapiens, UniProt P25101); test: Calcium mobilization assay, antagonist mode (ET-1 stimulated), CHO-K1 cells
T1 construct: expressed in transfected cells; host or cells: CHO-K1
T1 sequence (P25101 21-427): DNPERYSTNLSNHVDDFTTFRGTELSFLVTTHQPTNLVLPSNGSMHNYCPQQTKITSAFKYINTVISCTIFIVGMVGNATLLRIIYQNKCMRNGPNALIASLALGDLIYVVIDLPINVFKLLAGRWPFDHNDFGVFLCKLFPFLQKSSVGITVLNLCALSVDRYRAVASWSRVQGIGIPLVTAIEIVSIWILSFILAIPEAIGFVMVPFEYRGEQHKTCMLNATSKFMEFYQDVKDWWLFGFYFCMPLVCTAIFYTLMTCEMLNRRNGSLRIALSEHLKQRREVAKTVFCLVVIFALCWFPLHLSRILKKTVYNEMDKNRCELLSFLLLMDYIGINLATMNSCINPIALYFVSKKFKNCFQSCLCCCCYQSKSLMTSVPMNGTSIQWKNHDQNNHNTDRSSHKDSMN
Experimental: (§1) CHO-K1 cells were cultured in Ham’s F-12K (Kaighn’s) Medium (Gibco-Thermo Fisher Scientific) supplemented with 10% (v/v) fetal bovine serum (FBS; Gibco-Thermo Fisher Scientific), and 100 U/mL Penicillin-Streptomycin (Gibco-Thermo Fisher Scientific) in a humidified incubator at 37 °C with 5% CO2. Cells were seeded in 6-cm dishes overnight; when the density reached 60%–80%, the cells were transferred to F12K Medium supplemented with 10% FBS and transfected with 1.5 μg DNA encoding the ETA WT or mutants or 3 μg DNA encoding the ETB WT or mutants using TransIT2020 (Mirus Biosciences). The next day, transfected cells were harvested from the plate using Versene buffer (Gibco-Thermo Fisher Scientific) and seeded into black-sided, clear-bottomed 384-well plates (Agilent) at a density of 1,5000 cells per well. After 20 h, the 1% dFBS medium was removed, and cells were loaded with 20 μL/well of 1× Calcium 6 dye (Molecular Devices) and incubated at 37 °C for 1 h in the dark. […] All data were analyzed using GraphPad Prism 8 and the data are from at least three independent replicate experiments. All plots are shown as means ± SEM. Data were determined using one-way ANOVA followed by Dunnett’s multiple test compared with WT. The top value was normalized to 100% and the bottom value was normalized to 0% for the final presentation. Nonlinear curve fit was performed using a four-parameter logistic equation (log (agonist vs response) or log (inhibitor vs response)).

ETA F161^3.28A = target: T2, ETA F161^3.28A (Homo sapiens, UniProt P25101, F161A); test: Calcium mobilization assay, antagonist mode
T2 construct: expressed in transfected cells; host or cells: CHO-K1
T2 sequence (P25101 21-427 F161A): T1 sequence (P25101 21-427) with F141A
Experimental: as §1

ETA L322^6.51A = target: T3, ETA L322^6.51A (Homo sapiens, UniProt P25101, L322A); test: Calcium mobilization assay, antagonist mode
T3 construct: expressed in transfected cells; host or cells: CHO-K1
T3 sequence (P25101 21-427 L322A): T1 sequence (P25101 21-427) with L302A
Experimental: as §1

ETA Y129^2.53H = target: T4, ETA Y129^2.53H (Homo sapiens, UniProt P25101, Y129H); test: Calcium mobilization assay, antagonist mode
T4 construct: expressed in transfected cells; host or cells: CHO-K1
T4 sequence (P25101 21-427 Y129H): T1 sequence (P25101 21-427) with Y109H
Experimental: as §1

ETA L259^5.42A = target: T5, ETA L259^5.42A (Homo sapiens, UniProt P25101, L259A); test: Calcium mobilization assay, antagonist mode
T5 construct: expressed in transfected cells; host or cells: CHO-K1
T5 sequence (P25101 21-427 L259A): T1 sequence (P25101 21-427) with L239A
Experimental: as §1

ETA R326^6.55A = target: T6, ETA R326^6.55A (Homo sapiens, UniProt P25101, R326A); test: Calcium mobilization assay, antagonist mode
T6 construct: expressed in transfected cells; host or cells: CHO-K1
T6 sequence (P25101 21-427 R326A): T1 sequence (P25101 21-427) with R306A
Experimental: as §1

ETA Y129^2.53F = target: T7, ETA Y129^2.53F (Homo sapiens, UniProt P25101, Y129F); test: Calcium mobilization assay, antagonist mode
T7 construct: expressed in transfected cells; host or cells: CHO-K1
T7 sequence (P25101 21-427 Y129F): T1 sequence (P25101 21-427) with Y109F
Experimental: as §1

ETA Y263^5.46A = target: T8, ETA Y263^5.46A (Homo sapiens, UniProt P25101, Y263A); test: Calcium mobilization assay, antagonist mode
T8 construct: expressed in transfected cells; host or cells: CHO-K1
T8 sequence (P25101 21-427 Y263A): T1 sequence (P25101 21-427) with Y243A
Experimental: as §1

ETA Y129^2.53A = target: T9, ETA Y129^2.53A (Homo sapiens, UniProt P25101, Y129A); test: Calcium mobilization assay, antagonist mode
T9 construct: expressed in transfected cells; host or cells: CHO-K1
T9 sequence (P25101 21-427 Y129A): T1 sequence (P25101 21-427) with Y109A
Experimental: as §1

ETB H150^2.53Y = target: T10, ETB H150^2.53Y (Homo sapiens, UniProt P24530, H150Y); test: Calcium mobilization assay, antagonist mode
T10 construct: expressed in transfected cells; host or cells: CHO-K1
T10 sequence (P24530 27-442 H150Y): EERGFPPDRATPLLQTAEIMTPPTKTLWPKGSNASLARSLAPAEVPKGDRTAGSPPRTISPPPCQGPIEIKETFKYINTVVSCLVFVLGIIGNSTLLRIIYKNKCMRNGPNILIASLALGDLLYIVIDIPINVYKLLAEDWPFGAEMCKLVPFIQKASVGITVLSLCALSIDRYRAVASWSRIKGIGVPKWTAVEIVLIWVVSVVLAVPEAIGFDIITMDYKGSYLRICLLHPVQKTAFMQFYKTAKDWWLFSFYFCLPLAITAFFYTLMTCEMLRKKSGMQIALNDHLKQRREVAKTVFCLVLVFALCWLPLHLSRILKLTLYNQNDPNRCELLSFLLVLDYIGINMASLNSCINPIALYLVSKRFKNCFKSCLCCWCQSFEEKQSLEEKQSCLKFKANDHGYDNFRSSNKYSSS
Experimental: as §1

[1] = target: T11, ETB V177^3.28F+H150^2.53Y (Homo sapiens, UniProt P24530, H150Y/V177F); test: Calcium mobilization assay, antagonist mode
T11 construct: expressed in transfected cells; host or cells: CHO-K1
T11 sequence (P24530 27-442 H150Y/V177F): T10 sequence (P24530 27-442 H150Y) with V151F
Experimental: as §1

[2] = CHO-K1 cells, n = 5, read-out: IC50, inhibition activity on ETA in calcium mobilization assay
[3] = read-out: pIC50±S.E.M. (converted)

IC50 (ETA WT; [2])	IC50 (ETA WT; [3])	IC50 (ETA F161^3.28A)	IC50 (ETA L322^6.51A)	IC50 (ETA Y129^2.53H)	IC50 (ETA L259^5.42A)	IC50 (ETA R326^6.55A)	IC50 (ETA Y129^2.53F)	IC50 (ETA Y263^5.46A)	IC50 (ETA Y129^2.53A)	SMILES	IC50 (ETB H150^2.53Y)	IC50 [1]
0.6 nM	0.389 nM	89.1 nM	575 nM	575 nM	15500 nM	7940 nM	2.34 nM	813 nM	204 nM	COC(c1ccccc1)(c1ccccc1)[C@H](Oc1nc(C)cc(C)n1)C(=O)O [ambrisentan]		
1.3 nM	1.17 nM	17.8 nM	347 nM	891 nM	234 nM	36.3 nM	1.2 nM	15.5 nM	1020 nM	CCCNS(=O)(=O)Nc1ncnc(OCCOc2ncc(Br)cn2)c1-c1ccc(Br)cc1 [macitentan, N-[5-(4-bromophenyl)-6-[2-[(5-bromo-2-pyrimidinyl)oxy]ethoxy]-4-pyrimidinyl]-N’-propylsulfamide]		
										COc1nc(C)cnc1NS(=O)(=O)c1cccnc1-c1ccc(-c2nnco2)cc1 [zibotentan]	56200 nM	33100 nM
